The source made the active and inactive calls.
Experiments:
[1] = A549 cell cytotoxicity, dose response, cytotoxicity control, plate reader, cherry-pick, antagonist series (AID 743412); assay type: functional, cell-based
[2] = target: T1, 1-phosphatidylinositol 4,5-bisphosphate phosphodiesterase gamma-1 (Homo sapiens, UniProt P19174); assay: Counterscreen for inhibitors of phospholipase C isozymes (PLC-B3): Fluorescence-based biochemical high throughput dose response assay to identify inhibitors of phospholipase C isozymes (PLC-gamma1).
T1 sequence (P19174 whole entry): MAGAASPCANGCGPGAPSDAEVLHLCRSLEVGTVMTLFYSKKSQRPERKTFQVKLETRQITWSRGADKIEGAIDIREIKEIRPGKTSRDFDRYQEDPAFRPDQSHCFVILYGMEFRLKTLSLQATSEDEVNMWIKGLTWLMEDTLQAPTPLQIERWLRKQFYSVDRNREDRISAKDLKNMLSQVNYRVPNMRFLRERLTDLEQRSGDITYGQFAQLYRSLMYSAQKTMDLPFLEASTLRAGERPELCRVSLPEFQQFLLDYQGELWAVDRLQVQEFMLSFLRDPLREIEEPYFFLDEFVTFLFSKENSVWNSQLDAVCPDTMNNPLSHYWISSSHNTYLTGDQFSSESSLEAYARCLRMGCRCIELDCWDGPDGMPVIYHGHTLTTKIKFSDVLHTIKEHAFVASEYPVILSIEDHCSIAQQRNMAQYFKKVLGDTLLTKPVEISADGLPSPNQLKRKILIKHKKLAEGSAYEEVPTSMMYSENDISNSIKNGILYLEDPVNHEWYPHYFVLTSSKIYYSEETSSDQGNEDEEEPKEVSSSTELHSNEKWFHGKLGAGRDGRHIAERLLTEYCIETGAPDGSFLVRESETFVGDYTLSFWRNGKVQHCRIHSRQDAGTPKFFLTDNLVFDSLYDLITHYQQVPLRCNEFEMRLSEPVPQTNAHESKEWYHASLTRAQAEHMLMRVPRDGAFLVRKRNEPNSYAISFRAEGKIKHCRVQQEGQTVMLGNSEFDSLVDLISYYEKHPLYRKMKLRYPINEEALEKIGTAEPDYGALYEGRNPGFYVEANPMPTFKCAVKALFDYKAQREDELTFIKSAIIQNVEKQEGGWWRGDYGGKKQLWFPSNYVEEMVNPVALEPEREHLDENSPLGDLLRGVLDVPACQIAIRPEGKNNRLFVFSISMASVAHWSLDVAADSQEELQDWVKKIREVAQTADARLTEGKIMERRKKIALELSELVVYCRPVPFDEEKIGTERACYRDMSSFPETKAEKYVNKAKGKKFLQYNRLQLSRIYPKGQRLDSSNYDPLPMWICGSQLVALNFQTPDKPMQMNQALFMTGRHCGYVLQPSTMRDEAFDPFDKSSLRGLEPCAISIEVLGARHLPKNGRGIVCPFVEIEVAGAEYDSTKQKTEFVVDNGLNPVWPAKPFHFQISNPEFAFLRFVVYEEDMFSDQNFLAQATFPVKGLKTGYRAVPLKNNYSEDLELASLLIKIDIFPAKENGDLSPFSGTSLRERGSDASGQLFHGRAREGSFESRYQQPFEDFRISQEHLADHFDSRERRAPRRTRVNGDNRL

[3] = target: T2, Calpain-2 catalytic subunit (Sus scrofa, UniProt P43367); assay: m-calpain protease blockers, concentration series – biochemical, fluorogenic peptide substrate, dose response (AID 1420); assay type: functional
T2 sequence (P43367 whole entry): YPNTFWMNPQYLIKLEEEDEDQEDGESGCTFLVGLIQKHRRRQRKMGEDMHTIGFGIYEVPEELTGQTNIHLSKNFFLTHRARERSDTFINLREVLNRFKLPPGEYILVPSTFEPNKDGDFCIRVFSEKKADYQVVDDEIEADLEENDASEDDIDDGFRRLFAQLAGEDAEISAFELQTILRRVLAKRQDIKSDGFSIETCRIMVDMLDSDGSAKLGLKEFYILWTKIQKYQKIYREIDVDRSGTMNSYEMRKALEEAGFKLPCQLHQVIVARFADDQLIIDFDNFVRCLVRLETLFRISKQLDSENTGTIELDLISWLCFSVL

Cytochrome P450 2C9 = Cytochrome P450 2C9 (Homo sapiens, UniProt P11712)
Cytochrome P450 2C9, sequence (P11712 whole entry): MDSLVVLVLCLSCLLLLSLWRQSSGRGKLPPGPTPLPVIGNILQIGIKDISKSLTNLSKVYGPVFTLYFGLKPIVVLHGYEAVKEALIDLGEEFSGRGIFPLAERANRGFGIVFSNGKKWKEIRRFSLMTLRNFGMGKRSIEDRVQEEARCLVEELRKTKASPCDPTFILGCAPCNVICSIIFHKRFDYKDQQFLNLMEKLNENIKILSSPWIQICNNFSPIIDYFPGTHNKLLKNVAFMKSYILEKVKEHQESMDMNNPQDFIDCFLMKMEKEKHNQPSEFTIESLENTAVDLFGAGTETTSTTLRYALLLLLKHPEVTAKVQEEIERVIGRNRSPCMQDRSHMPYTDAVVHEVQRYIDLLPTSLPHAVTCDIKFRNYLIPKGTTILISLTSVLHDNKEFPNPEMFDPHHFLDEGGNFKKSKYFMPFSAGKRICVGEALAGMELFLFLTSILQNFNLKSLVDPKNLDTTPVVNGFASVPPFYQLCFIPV

Compound	AC50 [1]	IC50 [2]	IC50 [3]	AC50 (Cytochrome P450 2C9)
Cn1nc(-c2ccccn2)nc2c(=O)n(C)c(=O)nc1-2	3.15 µM (active)	> 4.54 µM (active)		
CCCCCCCCCCn1c2c(c(=N)c3c1CCC3)CCC2			6.72 µM (active)	20 µM (inconclusive)

Source: ChEMBL document CHEMBL1201862, “PubChem BioAssay data set” (2004)
